Results on 28 compounds are retold here after ChEMBL document CHEMBL4130584, “Sesqui- and Diterpenoids from the Radix of Curcuma aromatica” (2017).

Holding throughout (assay type): functional
The subject of test [1] is PC-12. Description: Antioxidant activity against H2O2-induced cell damage in rat PC12 cells assessed as cell viability at 5 uM after 24 hrs by MTT assay (reference value: 64.34 +/- 1.02 %). The settings on record: PC-12, 24 h, read-out: Activity. For orientation: Formazan colour is commonly taken as a measure of viable cells.
For test [2], the system named is PC-12. Description: Antioxidant activity against H2O2-induced cell damage in rat PC12 cells assessed as cell viability at 10 uM after 24 hrs by MTT assay (reference value: 64.34 +/- 1.02 %). The settings on record: PC-12, 24 h, read-out: Activity.
For test [3], the system named is PC-12. Nature of the test: Antioxidant activity against H2O2-induced cell damage in rat PC12 cells assessed as cell viability at 1 uM after 24 hrs by MTT assay (reference value: 64.34 +/- 1.02 %). The conditions noted are these: for viability at 1 µM: PC-12, 24 h, read-out: Activity.

Turning to `C=C1CC[C@H]2C(C)(C)[C@@H](O)CC[C@]2(C)[C@H]1C/C=C1\CCOC1=O`, the viability at 5 µM with PC-12 [1] worked out at 67.1%. Moreover, in the test with PC-12 [2], the viability at 10 µM came out at 67.4%. Also, the viability at 1 µM in the test with PC-12 [3] was 66.9%.
In the same order, the values of `CC(=O)CCc1c(C)cc(O)c2c1C(=O)OC2(C)C` are 68.7%, 70.2% and 65.4%.
The like results for `CC1=CC(=O)[C@]23C[C@]24[C@@]1(O)CC[C@]4(C)OC3(C)C` were, in that order, 74.8%, 77.2% and 72.7%.
Regarding `CC1=C2C[C@]34O[C@](C)(C[C@H]2OC1=O)[C@H]3CC[C@@H]4C`, the viability at 5 µM in the test on PC-12 [1] came to 71.6%. Also, the viability at 10 µM in the test with PC-12 [2] is 79.3%. Moreover, in the test on PC-12 [3], the viability at 1 µM was determined as 67.4%.
In the same order, the values of `CC1=C2C[C@@]34O[C@]2(OC1=O)[C@H](O)[C@](C)(O)[C@@H]3CC[C@H]4C` are 77.7%, 79.8% and 73.7%.
For `CC1=CC(=O)C(=C(C)C)C[C@H]2[C@H]1CC[C@]2(C)O` [PROCURCUMENOL], in the test on PC-12 [1], the viability at 5 µM was determined as 70%. Besides, the viability at 10 µM in the test with PC-12 [2] was determined as 69.6%. The viability at 1 µM in the test with PC-12 [3] was 66.4%.
For `CC1=C2C[C@H]3[C@H](CC[C@]3(C)O)[C@@](C)(O)C[C@@H]2OC1=O` [ZEDOALACTONE C], the viability at 5 µM with PC-12 [1] worked out at 77.3%. Besides, the viability at 10 µM in the test with PC-12 [2] was found to be 81%. The viability at 1 µM in the test on PC-12 [3] worked out at 73.1%.
With `CC1=CC(=O)C(=C(C)C)C[C@@]2(O)[C@H](C)CC[C@@H]12`, the viability at 5 µM with PC-12 [1] came out at 68.8%. The viability at 10 µM with PC-12 [2] was found to be 76.2%. For the same compound, the viability at 1 µM in the test on PC-12 [3] came out at 69.5%.
The like results for `CC1=C2CC[C@](C)(O)[C@H]2CC2=C(C)C(=O)OC2=C1` were, in that order, 84%, 88.7% and 82.9%.
The like results for `C=C[C@]1(C)C[C@@H]2OC(=O)C(C)=C2C[C@H]1C(=C)C` [ISOGERMAFURENOLIDE] were, in that order, 63.7%, 67.2% and 62.5%.
The like results for `Cc1cc2oc(=O)c(C)c-2cc2c1CC[C@H]2C` were, in that order, 70.6%, 72.5% and 68.1%.
Consider `CC(C)=C1C[C@]2(O)[C@@H](CC[C@@H]2C)[C@@](C)(O)CC1=O`, for which the viability at 5 µM in the test on PC-12 [1] came to 64%. For the same compound, the viability at 10 µM with PC-12 [2] was 65.2%. Moreover, the viability at 1 µM in the test on PC-12 [3] turned out to be 66.3%.
The like results for `C=C(C)C(=O)C[C@@]12OC(=O)C=C(C)[C@@H]1CC[C@@H]2C` were, in that order, 72.4%, 75.9% and 69.3%.
In the same order, the values of `Cc1cc(=O)c(C(C)C)cc2c1CC[C@]2(C)O` are 76.7%, 75.2% and 77.7%.
In the case of `CC1=C2CC(=O)[C@@H](C)CC/C=C(\C)C[C@@]2(O)OC1=O`, the viability at 5 µM with PC-12 [1] turned out to be 76.1%. Moreover, the viability at 10 µM in the test with PC-12 [2] was found to be 78.4%. Further, the viability at 1 µM with PC-12 [3] was 74.5%.
In the same order, the values of `CC1=C2CC[C@](C)(O)[C@H]2CC2=C(C)C(=O)O[C@@]2(O)C1` are 76.8%, 74.3% and 82.7%.
In the same order, the values of `C=C1CC[C@H]2C(C)(C)CCC[C@]2(C)[C@H]1CCC1=CC(=O)OC1` are 70.2%, 72.1% and 67.1%.
Turning to VITAMIN E, in the test on PC-12 [3], the Activity is 80.9%.
Turning to `CC1=C2C[C@@H]3[C@H](CC[C@@]3(C)O)[C@](C)(O)C[C@H]2OC1=O`, the viability at 5 µM in the test with PC-12 [1] was determined as 72%. For the same compound, the viability at 10 µM with PC-12 [2] came out at 76.4%. The viability at 1 µM in the test on PC-12 [3] came out at 67.5%.
Take `CC1=CC(=O)O[C@@]2(CC(=O)C(C)C)[C@@H](C)CC[C@@H]12`: in the test with PC-12 [1], the viability at 5 µM was 83.5%. Also, in the test on PC-12 [2], the viability at 10 µM stood at 89%. In addition, the viability at 1 µM in the test on PC-12 [3] stood at 73.4%.
As for `CC1=C2CC(=O)[C@@H](C)CC/C=C(\C)C[C@H]2OC1=O`, the viability at 5 µM in the test with PC-12 [1] turned out to be 77.4%. Moreover, in the test on PC-12 [2], the viability at 10 µM was 80.2%. In the test on PC-12 [3], the viability at 1 µM amounted to 65.4%.
`CC(C)C1=CC[C@@](C)(O)[C@@H]2CC[C@@](C)(O)[C@@H]2C1`: the viability at 5 µM in the test on PC-12 [1] amounted to 77.9%. The viability at 10 µM in the test on PC-12 [2] worked out at 77.7%. For the same compound, in the test on PC-12 [3], the viability at 1 µM was 69.5%.
In the same order, the values of `C[C@]12CCC[C@](C)(C(=O)O)[C@@H]1CC[C@@]13CC[C@@H]([C@H](O)[C@H]21)[C@]1(C)O[C@H]31` are 70.8%, 72.3% and 68.2%.
In the same order, the values of `CC1=C2C[C@@H]3[C@](C)(CCC[C@@]3(C)O)C[C@]2(O)OC1=O` are 80.9%, 90.1% and 81.2%.
With `CCO[C@]12C/C(C)=C/CC[C@@H](C)C(=O)CC1=C(C)C(=O)O2`, the viability at 5 µM in the test with PC-12 [1] is 80.9%. In addition, the viability at 10 µM in the test on PC-12 [2] is 85.2%. In the test with PC-12 [3], the viability at 1 µM is 77.7%.
As for `CC(C)=C1C[C@H]2[C@@H](CC[C@]2(C)O)[C@](C)(O)CC1=O` [ZEDOARONDIOL], the viability at 5 µM in the test on PC-12 [1] is 70.3%. Also, the viability at 10 µM with PC-12 [2] came to 72.6%. Further, in the test on PC-12 [3], the viability at 1 µM was found to be 81.9%.
In the same order, the values of `CC1=C2C[C@H]3[C@H](CC[C@]3(C)O)[C@@](C)(O)C[C@]2(O)OC1=O` [ZEDOAROLIDE B] are 77%, 80.7% and 76.1%.
The like results for `CC1(C)CCC[C@]2(C)[C@@H]1CC[C@](O)(CO)[C@H]2C/C=C1\CCOC1=O` were, in that order, 72.2%, 74.1% and 67.6%.
